According to patent US20130203798A1, “DIAGNOSIS AND TREATMENT OF FUNCTIONAL DYSPEPSIA AND IRRITABLE BOWEL SYNDROME” (EV MED, priority 2012, published 2013):

Experiments:
enteroviruses = assay: In vitro inhibition of four enteroviruses in interferon pre-treated, chronically infected cells (summary); assay type: cell-based, enterovirus; details: cells pre-treated with interferon to produce chronic infection; four enteroviruses tested
Description: (§1) Oxymatrine is an alkaloid with antiviral and immune boosting effect. […] 200,000 BGMK-DAF cells were infected with coxsackievirus B3,4 (CVB3,4) or echovirus 6,7 (Echo V6,7), previously titrated to cause complete lysis of cells in 48-72 hours, then treated with 0.18 μg of peg-interferon α-2a in 4 hours and 90 hours. Oxymatrine was added at 162 hours post-infection. Viral RNA, expressed in log10 was quantified by qRT-PCR with a cDNA standard, and reduction of log viral RNA calculated based on no-treatment wells. Duplicate wells were combined for viral RNA determination.

echovirus 7 (EchoV 7) = assay: Inhibition of enterovirus replication in chronically infected BGMK-DAF cells, viral RNA by qRT-PCR; assay type: cell-based; details: EchoV 7, BGMK-DAF cells; for Viral RNA Log10: no treatment 5.61
Description: as §1

coxsackievirus B4 (CVB4) = assay: as above; assay type: cell-based; details: for Viral RNA Log10: no treatment 4.20
Description: as §1

coxsackievirus B3 (CVB3) = assay: as above; assay type: cell-based; details: for Viral RNA Log10: no treatment 6.84
Description: as §1

echovirus 6 (EchoV 6) = assay: as above; assay type: cell-based; details: EchoV 6, BGMK-DAF cells; for Viral RNA Log10: no treatment 5.00
Description: as §1

In the case of `O=C1CCC[C@@H]2[C@H]3CCC[N@+]4([O-])CCC[C@@H](CN12)[C@@H]34` [Oxymatrine, oxymatrine], the “Inhibition of enteroviruses in vitro” value (enteroviruses) is reported as “significant inhibition of two out of four enteroviruses”, the “Dec Log10 (reduction of log viral RNA vs no-treatment wells)” value (echovirus 7 (EchoV 7); 1 μM oxymatrine) is reported as −0.28 Log10 and the “Viral RNA Log10” value (echovirus 7 (EchoV 7); 1 μM oxymatrine) is reported as 5.33 Log10. The “Dec Log10 (reduction of log viral RNA vs no-treatment wells)” value (echovirus 7 (EchoV 7); 10 μM oxymatrine) was −0.17 Log10, the “Viral RNA Log10” value (echovirus 7 (EchoV 7); 10 μM oxymatrine) was 5.45 Log10 and the “Dec Log10 (reduction of log viral RNA vs no-treatment wells)” value (echovirus 7 (EchoV 7); 100 μM oxymatrine) was 0.22 Log10. The “Viral RNA Log10” value (echovirus 7 (EchoV 7); 100 μM oxymatrine) was 5.83 Log10, the “Dec Log10 (reduction of log viral RNA vs no-treatment wells)” value (coxsackievirus B4 (CVB4); 1 μM oxymatrine) was −0.55 Log10 and the “Viral RNA Log10” value (coxsackievirus B4 (CVB4); 1 μM oxymatrine) was 3.66 Log10. For the same molecule, the “Dec Log10 (reduction of log viral RNA vs no-treatment wells)” value (coxsackievirus B4 (CVB4); 10 μM oxymatrine) was −4.20 Log10, the “Viral RNA Log10” value (coxsackievirus B4 (CVB4); 10 μM oxymatrine) was 0.00 Log10 and the “Dec Log10 (reduction of log viral RNA vs no-treatment wells)” value (coxsackievirus B4 (CVB4); 100 μM oxymatrine) was −3.90 Log10. For the same molecule, the “Viral RNA Log10” value (coxsackievirus B4 (CVB4); 100 μM oxymatrine) was 0.30 Log10, the “Dec Log10 (reduction of log viral RNA vs no-treatment wells)” value (coxsackievirus B3 (CVB3); 1 μM oxymatrine) was −6.24 Log10 and the “Viral RNA Log10” value (coxsackievirus B3 (CVB3); 1 μM oxymatrine) was 0.60 Log10. The “Dec Log10 (reduction of log viral RNA vs no-treatment wells)” value (coxsackievirus B3 (CVB3); 10 μM oxymatrine) was −6.54 Log10, the “Viral RNA Log10” value (coxsackievirus B3 (CVB3); 10 μM oxymatrine) was 0.30 Log10 and the “Dec Log10 (reduction of log viral RNA vs no-treatment wells)” value (coxsackievirus B3 (CVB3); 100 μM oxymatrine) was −5.54 Log10. For the same molecule, the “Viral RNA Log10” value (coxsackievirus B3 (CVB3); 100 μM oxymatrine added 162 h post-infection) was 1.30 Log10, the “Dec Log10 (reduction of log viral RNA vs no-treatment wells)” value (echovirus 6 (EchoV 6); 1 μM oxymatrine) was 0.00 Log10 and the “Viral RNA Log10” value (echovirus 6 (EchoV 6); 1 μM oxymatrine) was 5.00 Log10. For the same molecule, the “Dec Log10 (reduction of log viral RNA vs no-treatment wells)” value (echovirus 6 (EchoV 6); 10 μM oxymatrine) was 0.37 Log10, the “Viral RNA Log10” value (echovirus 6 (EchoV 6); 10 μM oxymatrine) was 5.37 Log10 and the “Dec Log10 (reduction of log viral RNA vs no-treatment wells)” value (echovirus 6 (EchoV 6); 100 μM oxymatrine) was 0.00 Log10. For the same molecule, the “Viral RNA Log10” value (echovirus 6 (EchoV 6); 100 μM oxymatrine) was 5.00 Log10.
